Assay results taken from patent US10104891B2 (priority 2014, dated 2018).

How the values were obtained:
Assay type in all cases: in vivo
[1] = tested on: Pseudoperonospora cubensis; assay: Test 2: control effect against cucumber downy mildew; conditions: control value vs untreated section; for pest or weed control at 4 µg/mL: Pseudoperonospora cubensis, 120 h
Method in brief: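 Protective test: zoospores (1.0×10^4 units/ml) misted one day after applying a 4 ppm suspension (wettable powder diluted in 1/5000 Tween20) to 2-leaf cucumber, Sagami hanjiro. After 16 hr at 22° C humid incubation, leaf lesion area read at day 5, expressed as control value versus untreated leaves.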

Plasmopara viticola = assay: Test 3: control effect against grape downy mildew; conditions: control value vs untreated section; for pest or weed control at 4 µg/mL: Plasmopara viticola, 120 h
Method in brief: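 Leaf lesion area, scored 5 days after inoculation and compared with untreated plants, gives the control value. Inoculation used P. viticola zoospores (1.0×10^4 units/ml) with a 16 hr moist incubation at 22° C. It followed by one day a spray of 4 ppm compound (wettable powder in Tween20) onto Neomuscat seedlings.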

Phytophthora infestans = assay: whole plant or invertebrate; conditions: for control value (Test 1): tomato late blight, control value vs untreated section; for pest or weed control at 4 µg/mL: Phytophthora infestans, in Solanum lycopersicum, 96 h, read-out: control value (Test 1)

Cc1ccc(C)c(CC(=O)N2CCC(c3nc(C4OCc5cccc(Br)c5CO4)cs3)CC2)c1 (stereo not drawn) [Compound 2-17]
control value (Test 2) [1]: 100 | control value (Test 3) (Plasmopara viticola): 100 | control value (Test 1) (Phytophthora infestans): 90

O=C(Cc1cc(Cl)ccc1Cl)N1CCC(c2nc(C3OCc4ccc([N+](=O)[O-])cc4CO3)cs2)CC1 (stereo not drawn) [Compound 2-21]
control value (Test 2) [1]: 100 | control value (Test 3) (Plasmopara viticola): 100 | control value (Test 1) (Phytophthora infestans): 50

COc1ccc(Br)c2c1COC(c1csc(C3CCN(C(=O)Cc4cc(C)ccc4C)CC3)n1)OC2 (stereo not drawn) [Compound 2-24]
control value (Test 2) [1]: 100 | control value (Test 3) (Plasmopara viticola): 100 | control value (Test 1) (Phytophthora infestans): 100

COc1ccc(Br)c2c1COC(c1csc(C3CCN(C(=O)Cc4cc(Cl)ccc4Cl)CC3)n1)OC2 (stereo not drawn) [Compound 2-25]
control value (Test 2) [1]: 100 | control value (Test 3) (Plasmopara viticola): 100 | control value (Test 1) (Phytophthora infestans): 40

COc1ccc(OS(C)(=O)=O)c2c1COC(c1csc(C3CCN(C(=O)Cc4cc(Cl)ccc4Cl)CC3)n1)OC2 (stereo not drawn) [Compound 2-26]
control value (Test 2) [1]: 100 | control value (Test 3) (Plasmopara viticola): 100 | control value (Test 1) (Phytophthora infestans): 100

Cc1ccc(C)c(CC(=O)N2CCC(c3nc(C4OCc5c(F)c(F)c(F)c(F)c5CO4)cs3)CC2)c1 [Compound 2-27]
control value (Test 2) [1]: 100 | control value (Test 3) (Plasmopara viticola): 100 | control value (Test 1) (Phytophthora infestans): 100

COc1ccc(OS(C)(=O)=O)c2c1COC(c1csc(C3CCN(C(=O)Cc4cc(C)ccc4C)CC3)n1)OC2 (stereo not drawn) [Compound 2-28]
control value (Test 2) [1]: 100 | control value (Test 3) (Plasmopara viticola): 100 | control value (Test 1) (Phytophthora infestans): 90

CS(=O)(=O)Oc1cccc2c1COC(c1csc(C3CCN(C(=O)Cc4cc(C(F)(F)F)ccc4C(F)(F)F)CC3)n1)OC2 (stereo not drawn) [Compound 2-30, 4-[4-(6-methylsulfonyloxy-1,5-dihydro-3H-2,4-benzodioxepin-3-yl)-2-thiazolyl]-1-[2-[2,5-bis(trifluoromethyl)phenyl]acetyl]piperidine]
pest or weed control at 4 µg/mL [1]: 100% | pest or weed control at 4 µg/mL (Plasmopara viticola): 100% | pest or weed control at 4 µg/mL (Phytophthora infestans): 30%

Cc1ccc(C)c(CC(=O)N2CCC(c3nc(C4OCc5c(OS(C)(=O)=O)cc(C)c(C)c5CO4)cs3)CC2)c1 (stereo not drawn) [Compound 2-31, 4-[4-(6,7-dimethyl-9-methylsulfonyloxy-1,5-dihydro-3H-2,4-benzodioxepin-3-yl)-2-thiazolyl]-1-[2-(2,5-dimethylphenyl)acetyl]piperidine]
pest or weed control at 4 µg/mL [1]: 100% | pest or weed control at 4 µg/mL (Plasmopara viticola): 100% | pest or weed control at 4 µg/mL (Phytophthora infestans): 0%

Cc1cc(OS(C)(=O)=O)c2c(c1C)COC(c1csc(C3CCN(C(=O)Cc4cc(Cl)ccc4Cl)CC3)n1)OC2 (stereo not drawn) [Compound 2-32]
control value (Test 2) [1]: 100 | control value (Test 3) (Plasmopara viticola): 100 | control value (Test 1) (Phytophthora infestans): 100

Cc1ccc(C)c(CC(=O)N2CCC(c3nc(C4OCc5c(Br)ccc(OS(C)(=O)=O)c5CO4)cs3)CC2)c1 (stereo not drawn) [Compound 2-33]
control value (Test 2) [1]: 100 | control value (Test 3) (Plasmopara viticola): 100 | control value (Test 1) (Phytophthora infestans): 20

CS(=O)(=O)Oc1ccc([N+](=O)[O-])c2c1COC(c1csc(C3CCN(C(=O)Cc4cc(Cl)ccc4Cl)CC3)n1)OC2 (stereo not drawn) [Compound 2-34]
control value (Test 2) [1]: 100 | control value (Test 3) (Plasmopara viticola): 100 | control value (Test 1) (Phytophthora infestans): 90

CS(=O)(=O)Oc1ccc(Br)c2c1COC(c1csc(C3CCN(C(=O)Cc4cc(Cl)ccc4Cl)CC3)n1)OC2 (stereo not drawn) [Compound 2-35]
control value (Test 2) [1]: 100 | control value (Test 3) (Plasmopara viticola): 100 | control value (Test 1) (Phytophthora infestans): 100

O=C(Cc1cc(Cl)ccc1Cl)N1CCC(c2nc(C3OCc4cccc([N+](=O)[O-])c4CO3)cs2)CC1 (stereo not drawn) [Compound 2-36]
control value (Test 2) [1]: 100 | control value (Test 3) (Plasmopara viticola): 100 | control value (Test 1) (Phytophthora infestans): 100

Cc1ccc(C)c(CC(=O)N2CCC(c3nc(C4OCc5c(OS(C)(=O)=O)ccc([N+](=O)[O-])c5CO4)cs3)CC2)c1 (stereo not drawn) [Compound 2-37]
control value (Test 2) [1]: 100 | control value (Test 3) (Plasmopara viticola): 100 | control value (Test 1) (Phytophthora infestans): 90

Cc1ccc(C)c(CC(=O)N2CCC(c3nc(C4OCc5c(Cl)ccc(OS(C)(=O)=O)c5CO4)cs3)CC2)c1 (stereo not drawn) [Compound 2-38]
control value (Test 2) [1]: 100 | control value (Test 3) (Plasmopara viticola): 100 | control value (Test 1) (Phytophthora infestans): 100

Cc1ccc(C)c(CC(=O)N2CCC(c3nc(C4OCc5c(I)ccc(OS(C)(=O)=O)c5CO4)cs3)CC2)c1 (stereo not drawn) [Compound 2-40]
control value (Test 2) [1]: 100 | control value (Test 3) (Plasmopara viticola): 100 | control value (Test 1) (Phytophthora infestans): 70

CS(=O)(=O)Oc1ccc(Cl)c2c1COC(c1csc(C3CCN(C(=O)Cc4cc(Cl)ccc4Cl)CC3)n1)OC2 (stereo not drawn) [Compound 2-41]
control value (Test 2) [1]: 100 | control value (Test 3) (Plasmopara viticola): 100 | control value (Test 1) (Phytophthora infestans): 100

Cc1ccc(C)c(CC(=O)N2CCC(c3nc(C4OCc5ccc(F)c(OS(C)(=O)=O)c5CO4)cs3)CC2)c1 (stereo not drawn) [Compound 2-42]
control value (Test 2) [1]: 100 | control value (Test 3) (Plasmopara viticola): 100 | control value (Test 1) (Phytophthora infestans): 90

CS(=O)(=O)Oc1c(F)ccc2c1COC(c1csc(C3CCN(C(=O)Cc4cc(Cl)ccc4Cl)CC3)n1)OC2 (stereo not drawn) [Compound 2-43, 4-[4-(7-fluoro-6-methylsulfonyloxy-1,5-dihydro-3H-2,4-benzodioxepin-3-yl)-2-thiazolyl]-1-[2-(2,5-dichlorophenyl)acetyl]piperidine]
pest or weed control at 4 µg/mL [1]: 100% | pest or weed control at 4 µg/mL (Plasmopara viticola): 100% | pest or weed control at 4 µg/mL (Phytophthora infestans): 100%

CS(=O)(=O)Oc1ccc(I)c2c1COC(c1csc(C3CCN(C(=O)Cc4cc(Cl)ccc4Cl)CC3)n1)OC2 (stereo not drawn) [Compound 2-44, 4-[4-(6-iodo-9-methylsulfonyloxy-1,5-dihydro-3H-2,4-benzodioxepin-3-yl)-2-thiazolyl]-1-[2-(2,5-dichlorophenyl)acetyl]piperidine]
pest or weed control at 4 µg/mL [1]: 100% | pest or weed control at 4 µg/mL (Plasmopara viticola): 100% | pest or weed control at 4 µg/mL (Phytophthora infestans): 90%

COc1ccc(C)c2c1COC(c1csc(C3CCN(C(=O)Cc4cc(Cl)ccc4Cl)CC3)n1)OC2 (stereo not drawn) [Compound 2-46]
control value (Test 2) [1]: 100 | control value (Test 3) (Plasmopara viticola): 100 | control value (Test 1) (Phytophthora infestans): 100

Cc1ccc(C)c(CC(=O)N2CCC(c3nc(C4OCc5cccc(OC(F)F)c5CO4)cs3)CC2)c1 (stereo not drawn) [Compound 2-47]
control value (Test 2) [1]: 100 | control value (Test 3) (Plasmopara viticola): 100 | control value (Test 1) (Phytophthora infestans): 100

CS(=O)(=O)Oc1ccc2c(c1)COC(c1csc(C3CCN(C(=O)Cc4cc(Cl)ccc4Cl)CC3)n1)OC2 (stereo not drawn) [Compound 2-49]
control value (Test 2) [1]: 0 | control value (Test 3) (Plasmopara viticola): 100 | control value (Test 1) (Phytophthora infestans): 100

COc1cccc2c1COC(c1csc(C3CCN(C(=O)Cc4cc(C)ccc4C)CC3)n1)OC2 (stereo not drawn) [Compound 2-50]
control value (Test 2) [1]: 100 | control value (Test 3) (Plasmopara viticola): 100 | control value (Test 1) (Phytophthora infestans): 100

COc1cccc2c1COC(c1csc(C3CCN(C(=O)Cc4cc(Cl)ccc4Cl)CC3)n1)OC2 (stereo not drawn) [Compound 2-51]
control value (Test 2) [1]: 100 | control value (Test 3) (Plasmopara viticola): 100 | control value (Test 1) (Phytophthora infestans): 100

Cc1ccc(C)c(CC(=O)N2CCC(c3nc(C4OCc5c(OS(C)(=O)=O)ccc(OS(C)(=O)=O)c5CO4)cs3)CC2)c1 [Compound 2-53]
control value (Test 2) [1]: 100 | control value (Test 3) (Plasmopara viticola): 100 | control value (Test 1) (Phytophthora infestans): 100

Cc1ccc(C)c(CC(=O)N2CCN(c3nc(C4OCc5cccc(OS(C)(=O)=O)c5CO4)cs3)CC2)c1 (stereo not drawn) [Compound 2-54]
control value (Test 2) [1]: 90 | control value (Test 3) (Plasmopara viticola): 100 | control value (Test 1) (Phytophthora infestans): 90

CC(C)=NOCC(=O)N1CCC(c2nc(C3OCc4cccc(OS(C)(=O)=O)c4CO3)cs2)CC1 (stereo not drawn) [Compound 3-1, 4-[4-(6-methylsulfonyloxy-1,5-dihydro-3H-2,4-benzodioxepin-3-yl)-2-thiazolyl]-1-[2-[(propane-2-ylideneamino)oxy]acetyl]piperidine]
pest or weed control at 4 µg/mL [1]: 100% | pest or weed control at 4 µg/mL (Plasmopara viticola): 100% | pest or weed control at 4 µg/mL (Phytophthora infestans): 100%

O=C(CON=CC(F)(F)F)N1CCC(c2nc(C3OCc4cccc(F)c4CO3)cs2)CC1 (stereo not drawn) [Compound 3-2]
control value (Test 2) [1]: 100 | control value (Test 3) (Plasmopara viticola): 100 | control value (Test 1) (Phytophthora infestans): 100

CS(=O)(=O)Oc1ccc(F)c2c1COC(c1csc(C3CCN(C(=O)CON=CC(F)(F)F)CC3)n1)OC2 (stereo not drawn) [Compound 3-3]
control value (Test 2) [1]: 100 | control value (Test 3) (Plasmopara viticola): 100 | control value (Test 1) (Phytophthora infestans): 100

O=C(CON=CC(F)(F)F)N1CCC(c2nc(C3OCc4c(F)ccc(F)c4CO3)cs2)CC1 [Compound 3-4]
control value (Test 2) [1]: 100 | control value (Test 3) (Plasmopara viticola): 100 | control value (Test 1) (Phytophthora infestans): 100
